Measurements from ChEMBL document CHEMBL4602641, “Discovery of novel pyrrolo[2,3-b]pyridine derivatives bearing 4-oxoquinoline moiety as potential antitumor inhibitor” (Bioorg Med Chem Lett, 2020).
The source made the active and inactive calls. No cut-off for these calls is given here.

Columns and labels:
A549 [1] = assay: Antiproliferative activity against human A549 cells assessed as cell growth inhibition measured after 72 hrs by MTT assay; conditions: A549, 72 h
HepG2 [2] = assay: Antiproliferative activity against human HepG2 cells assessed as cell growth inhibition measured after 72 hrs by MTT assay; conditions: HepG2, 72 h
MCF7 = assay: Antiproliferative activity against human MCF7 cells assessed as cell growth inhibition measured after 72 hrs by MTT assay; conditions: MCF7, 72 h
HepG2 [3] = assay: Induction of apoptosis in human HepG2 cells assessed as abnormal cell morphology at 0.24 uM by acridine orange staining based fluorescence microscopy; format: functional
HepG2 [4] = assay: Induction of apoptosis in human HepG2 cells assessed as decomposed nucleus at 0.24 uM by acridine orange staining based fluorescence microscopy; format: functional, cell-based
HepG2 [5] = assay: Induction of apoptosis in human HepG2 cells assessed as dispersed nucleus at 0.24 uM by acridine orange staining based fluorescence microscopy; format: functional, cell-based
HepG2 [6] = assay: Induction of apoptosis in human HepG2 cells assessed as concentrated chromatin at 0.24 uM by acridine orange staining based fluorescence microscopy; format: functional, cell-based
[7] = target: Mast/stem cell growth factor receptor Kit (Homo sapiens, UniProt P10721); assay: Inhibition of c-Kit (unknown origin) by enzymatic assay
[8] = target: Vascular endothelial growth factor receptor 2 (Homo sapiens, UniProt P35968); assay: Inhibition of VEGFR2 (unknown origin) by enzymatic assay
[9] = target: Platelet-derived growth factor receptor beta (Homo sapiens, UniProt P09619); assay: Inhibition of PDGFRbeta (unknown origin) by enzymatic assay
[10] = target: ALK tyrosine kinase receptor (Homo sapiens, UniProt Q9UM73); assay: Inhibition of ALK (unknown origin) by enzymatic assay
[11] = target: Macrophage-stimulating protein receptor (Homo sapiens, UniProt Q04912); assay: Inhibition of RON (unknown origin) by enzymatic assay
HepG2 [12] = assay: Induction of apoptosis in human HepG2 cells assessed as abnormal cell morphology at 0.24 uM by inverted microscopy microscopy; format: functional, cell-based
A549 [13] = assay: Antiproliferative activity against human A549 cells assessed as cell growth inhibition measured after 72 hrs by MTT assay
[14] = target: Hepatocyte growth factor receptor (Homo sapiens, UniProt P08581); assay: Inhibition of c-Met (unknown origin) by caliper mobility shift assay
Sequence of Hepatocyte growth factor receptor (P08581 whole entry): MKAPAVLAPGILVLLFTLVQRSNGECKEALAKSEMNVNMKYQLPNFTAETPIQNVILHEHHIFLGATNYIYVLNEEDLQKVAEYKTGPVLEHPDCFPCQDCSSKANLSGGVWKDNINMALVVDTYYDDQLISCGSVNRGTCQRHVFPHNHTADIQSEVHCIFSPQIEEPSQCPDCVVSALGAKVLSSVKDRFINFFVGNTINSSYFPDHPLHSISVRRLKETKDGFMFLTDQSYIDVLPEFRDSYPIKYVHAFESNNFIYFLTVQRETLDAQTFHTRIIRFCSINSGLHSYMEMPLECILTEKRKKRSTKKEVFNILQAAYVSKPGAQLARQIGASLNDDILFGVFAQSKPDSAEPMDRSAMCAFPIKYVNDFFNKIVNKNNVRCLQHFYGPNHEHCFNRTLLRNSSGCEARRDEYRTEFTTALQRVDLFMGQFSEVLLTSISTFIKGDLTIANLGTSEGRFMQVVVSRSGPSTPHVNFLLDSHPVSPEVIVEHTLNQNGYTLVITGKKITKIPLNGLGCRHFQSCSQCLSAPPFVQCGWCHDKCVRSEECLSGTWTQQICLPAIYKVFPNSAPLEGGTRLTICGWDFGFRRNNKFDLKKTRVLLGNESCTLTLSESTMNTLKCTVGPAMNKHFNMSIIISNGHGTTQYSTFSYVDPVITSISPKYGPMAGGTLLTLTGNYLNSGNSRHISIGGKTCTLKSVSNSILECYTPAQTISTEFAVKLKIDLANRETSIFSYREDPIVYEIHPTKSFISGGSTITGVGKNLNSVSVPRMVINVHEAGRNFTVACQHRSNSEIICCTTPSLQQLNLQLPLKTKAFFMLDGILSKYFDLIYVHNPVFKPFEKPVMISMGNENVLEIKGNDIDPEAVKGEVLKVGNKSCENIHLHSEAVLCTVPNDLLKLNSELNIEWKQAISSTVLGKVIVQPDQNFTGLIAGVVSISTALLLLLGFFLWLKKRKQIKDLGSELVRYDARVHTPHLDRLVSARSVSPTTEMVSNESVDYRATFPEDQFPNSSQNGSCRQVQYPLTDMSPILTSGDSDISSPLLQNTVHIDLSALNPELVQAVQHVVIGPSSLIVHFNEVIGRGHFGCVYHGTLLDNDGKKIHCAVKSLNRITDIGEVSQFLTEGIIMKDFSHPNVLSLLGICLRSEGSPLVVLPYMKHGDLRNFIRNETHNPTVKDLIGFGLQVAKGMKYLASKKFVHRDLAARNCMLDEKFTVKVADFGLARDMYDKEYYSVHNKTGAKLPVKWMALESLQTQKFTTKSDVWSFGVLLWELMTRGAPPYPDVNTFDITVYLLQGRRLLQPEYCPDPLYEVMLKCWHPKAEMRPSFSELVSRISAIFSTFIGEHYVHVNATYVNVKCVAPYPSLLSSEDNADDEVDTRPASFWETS

Sequence of Macrophage-stimulating protein receptor (Q04912 25-304 limits assumed): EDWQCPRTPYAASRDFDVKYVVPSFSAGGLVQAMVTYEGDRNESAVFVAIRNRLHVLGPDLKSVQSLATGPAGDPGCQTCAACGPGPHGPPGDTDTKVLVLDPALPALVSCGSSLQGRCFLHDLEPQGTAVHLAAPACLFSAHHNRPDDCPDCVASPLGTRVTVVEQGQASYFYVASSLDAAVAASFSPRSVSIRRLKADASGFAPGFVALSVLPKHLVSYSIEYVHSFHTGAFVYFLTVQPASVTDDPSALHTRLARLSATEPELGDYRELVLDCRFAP
Sequence of Macrophage-stimulating protein receptor (Q04912 310-1400 limits assumed): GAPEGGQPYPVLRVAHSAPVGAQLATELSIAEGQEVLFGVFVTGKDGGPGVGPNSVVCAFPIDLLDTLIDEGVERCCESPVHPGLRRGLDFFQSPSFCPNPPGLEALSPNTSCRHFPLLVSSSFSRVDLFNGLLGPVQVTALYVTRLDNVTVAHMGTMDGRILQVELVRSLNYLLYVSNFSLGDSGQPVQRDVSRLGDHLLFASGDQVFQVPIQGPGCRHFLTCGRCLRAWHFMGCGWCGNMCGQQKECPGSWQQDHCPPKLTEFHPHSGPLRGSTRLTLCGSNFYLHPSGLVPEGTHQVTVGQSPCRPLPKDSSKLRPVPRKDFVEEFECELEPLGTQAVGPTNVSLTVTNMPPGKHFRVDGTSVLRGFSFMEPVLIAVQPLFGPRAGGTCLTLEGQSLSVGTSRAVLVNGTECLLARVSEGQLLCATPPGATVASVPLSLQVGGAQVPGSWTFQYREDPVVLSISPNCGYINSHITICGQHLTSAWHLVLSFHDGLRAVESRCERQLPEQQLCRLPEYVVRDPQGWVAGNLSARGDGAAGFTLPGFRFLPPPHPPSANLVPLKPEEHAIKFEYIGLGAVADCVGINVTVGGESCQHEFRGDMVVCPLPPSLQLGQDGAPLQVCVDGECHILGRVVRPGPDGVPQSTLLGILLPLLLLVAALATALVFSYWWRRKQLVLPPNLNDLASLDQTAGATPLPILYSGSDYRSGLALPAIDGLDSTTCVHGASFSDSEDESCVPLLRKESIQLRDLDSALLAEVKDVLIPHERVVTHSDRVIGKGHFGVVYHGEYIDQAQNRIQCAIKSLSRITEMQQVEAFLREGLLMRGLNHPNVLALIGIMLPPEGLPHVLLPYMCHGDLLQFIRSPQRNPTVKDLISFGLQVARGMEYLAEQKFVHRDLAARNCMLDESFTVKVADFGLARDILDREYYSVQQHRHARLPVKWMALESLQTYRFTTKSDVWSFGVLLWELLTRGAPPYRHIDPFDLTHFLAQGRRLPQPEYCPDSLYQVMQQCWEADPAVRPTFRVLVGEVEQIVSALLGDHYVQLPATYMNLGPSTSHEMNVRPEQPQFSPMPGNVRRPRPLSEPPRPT
Sequence of Vascular endothelial growth factor receptor 2 (P35968 whole entry): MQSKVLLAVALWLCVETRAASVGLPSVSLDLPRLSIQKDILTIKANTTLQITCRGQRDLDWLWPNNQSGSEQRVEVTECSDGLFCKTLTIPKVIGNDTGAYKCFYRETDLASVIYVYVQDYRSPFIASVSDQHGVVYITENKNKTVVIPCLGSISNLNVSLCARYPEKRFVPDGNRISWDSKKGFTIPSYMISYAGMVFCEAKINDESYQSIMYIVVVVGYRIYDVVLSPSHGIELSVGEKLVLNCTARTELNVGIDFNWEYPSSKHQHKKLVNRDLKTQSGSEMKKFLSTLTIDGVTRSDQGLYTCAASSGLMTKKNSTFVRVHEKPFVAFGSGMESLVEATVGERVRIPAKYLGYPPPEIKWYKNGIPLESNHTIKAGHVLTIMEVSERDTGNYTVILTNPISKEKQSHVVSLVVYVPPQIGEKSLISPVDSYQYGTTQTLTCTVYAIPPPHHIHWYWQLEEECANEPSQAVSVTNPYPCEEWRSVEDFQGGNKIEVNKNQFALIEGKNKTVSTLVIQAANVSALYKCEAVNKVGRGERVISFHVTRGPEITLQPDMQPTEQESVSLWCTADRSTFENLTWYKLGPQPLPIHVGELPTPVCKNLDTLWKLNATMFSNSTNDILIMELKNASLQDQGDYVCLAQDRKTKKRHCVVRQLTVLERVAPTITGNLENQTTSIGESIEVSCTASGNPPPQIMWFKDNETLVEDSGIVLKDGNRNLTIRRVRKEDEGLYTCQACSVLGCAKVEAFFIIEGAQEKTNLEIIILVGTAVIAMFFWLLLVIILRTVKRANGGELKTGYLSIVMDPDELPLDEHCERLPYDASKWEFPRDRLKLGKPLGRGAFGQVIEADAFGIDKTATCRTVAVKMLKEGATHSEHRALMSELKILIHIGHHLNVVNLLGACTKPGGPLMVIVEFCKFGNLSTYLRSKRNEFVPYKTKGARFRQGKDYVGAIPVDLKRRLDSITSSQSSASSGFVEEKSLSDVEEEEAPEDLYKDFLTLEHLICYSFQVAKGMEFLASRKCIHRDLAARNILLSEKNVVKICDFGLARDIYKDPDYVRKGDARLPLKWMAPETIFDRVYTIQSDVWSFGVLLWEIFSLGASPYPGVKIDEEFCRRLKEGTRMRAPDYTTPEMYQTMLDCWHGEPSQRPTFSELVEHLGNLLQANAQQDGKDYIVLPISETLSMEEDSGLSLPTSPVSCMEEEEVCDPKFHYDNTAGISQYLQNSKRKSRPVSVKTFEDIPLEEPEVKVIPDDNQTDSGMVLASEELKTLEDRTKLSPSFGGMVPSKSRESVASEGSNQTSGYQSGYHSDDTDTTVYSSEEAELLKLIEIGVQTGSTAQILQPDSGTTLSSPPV
Sequence of Mast/stem cell growth factor receptor Kit (P10721 whole entry): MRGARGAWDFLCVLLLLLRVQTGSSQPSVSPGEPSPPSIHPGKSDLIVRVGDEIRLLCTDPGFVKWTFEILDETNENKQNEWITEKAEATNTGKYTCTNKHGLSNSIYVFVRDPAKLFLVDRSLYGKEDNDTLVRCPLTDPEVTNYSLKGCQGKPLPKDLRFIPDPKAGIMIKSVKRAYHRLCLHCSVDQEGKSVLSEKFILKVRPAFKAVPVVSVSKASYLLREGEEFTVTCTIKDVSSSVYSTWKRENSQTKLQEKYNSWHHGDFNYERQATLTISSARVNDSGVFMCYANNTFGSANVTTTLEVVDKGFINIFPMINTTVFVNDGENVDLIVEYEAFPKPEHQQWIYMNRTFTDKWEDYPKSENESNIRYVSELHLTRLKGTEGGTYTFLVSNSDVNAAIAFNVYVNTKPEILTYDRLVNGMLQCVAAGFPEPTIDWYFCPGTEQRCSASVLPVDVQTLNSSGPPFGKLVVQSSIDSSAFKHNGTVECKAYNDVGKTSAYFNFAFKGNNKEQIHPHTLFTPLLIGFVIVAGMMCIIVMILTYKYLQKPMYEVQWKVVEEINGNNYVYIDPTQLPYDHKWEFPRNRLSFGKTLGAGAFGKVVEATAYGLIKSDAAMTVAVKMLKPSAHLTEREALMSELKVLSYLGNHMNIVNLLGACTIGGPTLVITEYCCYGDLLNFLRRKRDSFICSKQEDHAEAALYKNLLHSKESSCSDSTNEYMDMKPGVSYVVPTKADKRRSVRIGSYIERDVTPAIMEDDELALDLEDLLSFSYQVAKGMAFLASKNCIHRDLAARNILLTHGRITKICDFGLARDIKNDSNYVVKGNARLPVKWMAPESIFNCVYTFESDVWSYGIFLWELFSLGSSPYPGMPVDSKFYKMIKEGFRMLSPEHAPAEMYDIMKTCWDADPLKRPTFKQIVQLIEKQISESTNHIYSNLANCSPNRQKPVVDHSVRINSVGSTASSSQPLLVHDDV

Row | IC50 (A549 [1]) | IC50 (HepG2 [2]) | IC50 (MCF7) | SMILES | other results
1 | 1.03 µM | 2.25 µM | 3.56 µM | O=C(Nc1ccc(Oc2ccnc3[nH]ccc23)cc1)c1cn(-c2ccccc2)c2ccccc2c1=O | –
2 | 2.35 µM | – | 3.57 µM | O=C(Nc1ccc(Oc2ccnc3[nH]ccc23)cc1)c1cn(-c2ccc(C(F)(F)F)cc2Cl)c2ccccc2c1=O | –
3 | 4.81 µM | 1.12 µM | 1.51 µM | O=C(Nc1ccc(Oc2ccnc3[nH]ccc23)cc1)c1cn(-c2ccc(F)c(Cl)c2)c2ccccc2c1=O | –
4 | 0.42 µM | 0.76 µM | 0.43 µM | O=C(Nc1ccc(Oc2ccnc3[nH]ccc23)c(F)c1)c1cn(-c2ccccc2)c2ccccc2c1=O | –
5 | 0.65 µM | 0.25 µM | 1.59 µM | O=C(Nc1ccc(Oc2ccnc3[nH]ccc23)cc1)c1cn(-c2ccc(Cl)cc2)c2ccccc2c1=O | –
6 | 0.29 µM | 0.27 µM | 0.52 µM | O=C(Nc1ccc(Oc2ccnc3[nH]ccc23)c(F)c1)c1cn(-c2ccc(F)cc2)c2ccccc2c1=O | Activity (HepG2 [3]): Active; Activity (HepG2 [4]): Active; Activity (HepG2 [5]): Active; Activity (HepG2 [6]): Active; IC50 [7]: 1.31 µM; IC50 [8]: > 10 µM; IC50 [9]: > 10 µM; IC50 [10]: > 10 µM; IC50 [11]: > 10 µM; Activity (HepG2 [12]): Active; inhibition (A549 [13]): Dose-dependent effect
7 | 1.46 µM | 2.01 µM | – | Cn1ccc2c(Oc3ccc(NC(=O)c4cn(-c5ccc(F)cc5)c5ccccc5c4=O)cc3F)ccnc21 | –
8 | 0.32 µM | 0.38 µM | – | O=C(Nc1ccc(Oc2ccnc3[nH]ccc23)c(F)c1)c1cn(-c2ccc(Cl)cc2)c2ccccc2c1=O | IC50 [14]: 0.041 µM
9 | 0.48 µM | 0.35 µM | 0.73 µM | COc1cc2c(Oc3ccc(NC(=O)C4(C(=O)Nc5ccc(F)cc5)CC4)cc3F)ccnc2cc1OCCCN1CCOCC1 [FORETINIB] | –
10 | 0.45 µM | 0.22 µM | 0.61 µM | O=C(Nc1ccc(Oc2ccnc3[nH]ccc23)cc1)c1cn(-c2ccc(Br)cc2)c2ccccc2c1=O | IC50 [14]: 0.01 µM
11 | 1.72 µM | 2.17 µM | 2.79 µM | Cn1ccc2c(Oc3ccc(NC(=O)c4cn(-c5ccccc5)c5ccccc5c4=O)cc3F)ccnc21 | –
12 | 4.15 µM | 6.53 µM | 6.62 µM | COc1ccc(-n2cc(C(=O)Nc3ccc(Oc4ccnc5[nH]ccc45)c(F)c3)c(=O)c3ccccc32)cc1 | –
13 | 0.25 µM | 0.29 µM | 2.12 µM | Cn1ccc2c(Oc3ccc(NC(=O)c4cn(-c5ccc(Cl)cc5)c5ccccc5c4=O)cc3F)ccnc21 | IC50 [14]: 0.087 µM
14 | 0.95 µM | 0.71 µM | 0.65 µM | O=C(Nc1ccc(Oc2ccnc3[nH]ccc23)c(F)c1)c1cn(-c2ccc(Br)cc2)c2ccccc2c1=O | –
15 | 1.33 µM | 0.79 µM | – | O=C(Nc1ccc(Oc2ccnc3[nH]ccc23)cc1)c1cn(-c2ccc(Br)cc2F)c2ccccc2c1=O | –
16 | 1.39 µM | 1.26 µM | 1.83 µM | Cn1ccc2c(Oc3ccc(NC(=O)c4cn(-c5ccc(Br)cc5)c5ccccc5c4=O)cc3F)ccnc21 | –
17 | 3.21 µM | 3.75 µM | 6.72 µM | COc1ccc(-n2cc(C(=O)Nc3ccc(Oc4ccnc5c4ccn5C)c(F)c3)c(=O)c3ccccc32)cc1 | –
18 | 2.05 µM | – | 0.19 µM | Cn1ccc2c(Oc3ccc(NC(=O)c4cn(-c5ccc(C(F)(F)F)cc5Cl)c5ccccc5c4=O)cc3F)ccnc21 | –
19 | 1.21 µM | – | – | Cn1ccc2c(Oc3ccc(NC(=O)c4cn(-c5ccc(F)c(Cl)c5)c5ccccc5c4=O)cc3F)ccnc21 | –
20 | 2.15 µM | 3.39 µM | – | O=C(Nc1ccc(Oc2ccnc3[nH]ccc23)c(F)c1)c1cn(-c2ccc(F)c(Cl)c2)c2ccccc2c1=O | –
21 | 1.52 µM | 2.51 µM | 0.42 µM | Cn1ccc2c(Oc3ccc(NC(=O)c4cn(-c5ccc(Br)cc5F)c5ccccc5c4=O)cc3F)ccnc21 | –
22 | 1.15 µM | 2.2 µM | 1.39 µM | O=C(Nc1ccc(Oc2ccnc3[nH]ccc23)c(F)c1)c1cn(-c2ccc(Br)cc2F)c2ccccc2c1=O | –
23 | 1.62 µM | 1.84 µM | 1.12 µM | O=C(Nc1ccc(Oc2ccnc3[nH]ccc23)c(F)c1)c1cn(-c2ccc(C(F)(F)F)cc2Cl)c2ccccc2c1=O | –
24 | 4.98 µM | 5.95 µM | 4.65 µM | COc1ccc(-n2cc(C(=O)Nc3ccc(Oc4ccnc5[nH]ccc45)cc3)c(=O)c3ccccc32)cc1 | –
25 | 0.39 µM | 0.45 µM | 0.72 µM | O=C(Nc1ccc(Oc2ccnc3[nH]ccc23)cc1)c1cn(-c2ccc(F)cc2)c2ccccc2c1=O | –
